Assay results reported in patent US9624255B2, “Carbohydrate-mediated tumor targeting” (Arizona Board of Regents, priority 2009, dated 2017).

Key:
[1] = test system: A-549 lung carcinoma cells; experiment: Visualization of cell association of fluorescent-disaccharide probe (fluorescence microscopy); assay type: cell-based; conditions: 1 fM, five minutes at 37° C.; A-549 compared with CCL-75 normal lung fibroblasts; FIG. 5
Experimental: In this case, we tethered a non-fluorescent pro-fluorophore, 5(6)-carboxyfluorescein diacetate (CFSE) onto the disaccharide of bleomycin to create a BLM-sugar probe. This fluorophore should only fluoresce when acted upon by the cell, where intracellular esterases cleave the acetate groups allowing for detectable fluorescence.
Both A-549 lung carcinoma cells and CCL-75 normal lung fibroblasts were seeded on 35 mm glass cover slips at a density of 2.5×10^5 cells before incubating 48 hours to allow attachment and growth. A total effective concentration of 1 fM of the fluorescent-sugar derivative (34) and 5(6)-carboxyfluorescein diacetate N-succinimidyl ester (CFSE) compounds were added to cover slips of each cell type before incubation for five minutes at 37° C. To prepare slides for microscopy viewing, cover slips were washed in PBS and 70% ethanol solution before fixation in Histochoice MB Fixative (Electron Microscopy Sciences, Hatfield, Pa.) for 15 minutes. Fixed cover slips were mounted onto glass slides for viewing. Using the Zeiss Axiovert 200M inverted microscope (Apotome camera), fluorescent images were acquired using DIC (at 35 ms exposure time) and appropriate fluorescence filter at 470-490 nm excitation (761 ms exposure time), 40× objective magnification.

MCF-7 (Breast carcinoma) = experiment: Microbubble attachment to cultured cells (flow chamber, inverted microscopy); assay type: cell-based
Experimental: To create BLM A5- and deglyco BLM A5-microbubbles, the synthesized biotinylated compounds (1, 2 and 32) were conjugated to Targestar^B Targeted Ultrasound Contrast Agents (Targeson). For each of these preparations, 400 μL of Coupling Reagent (Targeson) was added to 1.5 mL of conjugated Targestar^B microbubbles and incubated for 20 min at room temperature, with gentle agitation every 5 min. The resulting product was divided into two syringes, each rinsed with 1.75 mL of Infusion Buffer, and then centrifuged for 3 min (400×g, 10° C.). The infranatant was then drained to 1 mL. For each separate preparation, […] containing 50 nM of the biotinylated compound was added to one of the vials and both were incubated at room temperature for 20 min with gentle agitation every 5 min. To each sample was added 1.75 mL of Infusion Buffer before centrifugation for 3 min at 400×g (10° C.). This solution was then drained to 1.0 mL before recovery of the supernatant and repetition of the previous step. Finally, the supernatant was resuspended in Infusion Buffer to a final volume of 2.0 mL.
Attachment of the (biotinylated BLM A5-, biotinylated deglyco BLM A5-, and biotinylated BLM A5 disaccharide-conjugated) microbubbles to the cultured cancer cells was imaged using an inverted microscope Zeiss Axiovert 200M fitted with an AxioCam MRm camera. […]

5(6)-carboxyfluorescein diacetate N-succinimidyl ester [CFSE, reference compound]
Fluorescence of cells after exposure to compound [1]: lack of marked fluorescence

NC(=O)O[C@@H]1[C@H](O)[C@@H](O[C@@H]2[C@H](OCCOCCNC(=O)CCCC[C@@H]3SC[C@@H]4NC(=O)N[C@@H]43)O[C@@H](CO)[C@@H](O)[C@@H]2O)O[C@H](CO)[C@H]1O [Compound 32, (2R,3S,4S,5R,6R)-2-((2R,3S,4S,5S,6S)-4,5-dihydroxy-6-(hydroxymethyl)-2-(2-(2-(5-((3aS,4S,6aR)-2-oxohexahydro-1H-thieno[3,4-d]imidazol-4-yl)pentanamido)ethoxy)ethoxy)tetrahydro-2H-pyran-3-yloxy)-3,5-dihydroxy-6-(hydroxymethyl)tetrahydro-2H-pyran-4-yl Carbamate]
Microbubble attachment to MCF-7 cells (in words) (MCF-7 (Breast carcinoma); MCF-7 breast carcinoma cells, compound conjugated to microbubble, FIG. 3/4): greater attachment than biotinylated bleomycin A5
Preferential attachment, tumor over normal cells (MCF-7 (Breast carcinoma); MCF-7 versus MCF-10A, conjugated onto the microbubble, FIG. 4a): preferential attachment to MCF-7 tumor cells over MCF-10A cells

CC(=O)Oc1ccc2c(c1)Oc1cc(OC(C)=O)ccc1C21OC(=O)c2cc(C(=O)NCCOCCO[C@@H]3O[C@@H](CO)[C@@H](O)[C@H](O)[C@@H]3O[C@H]3O[C@H](CO)[C@@H](O)[C@H](OC(N)=O)[C@@H]3O)ccc21 [Compound 34, (4,5)-(2-(2-((2R,3S,4S,5S,6S)-3-((2R,3S,4S,5R,6R)-4-(Carbamoyloxy)-3,5-dihydroxy-6-(hydroxymethyl)tetrahydro-2H-pyran-2-yloxy)-4,5-dihydroxy-6-(hydroxymethyl)tetrahydro-2H-pyran-2-yloxy)ethoxy)ethylcarbamoyl)-3-oxo-3H-spiro[isobenzofuran-1,9′-xanthene]-3′,6′-diyl Diacetate]
Fluorescence of cells after exposure to compound [1]: highest fluorescence only in the tumor cell line
